Test results published in paper PMC6154605, “Multi-Anti-Parasitic Activity of Arylidene Ketones and Thiazolidene Hydrazines against Trypanosoma cruzi and Leishmania spp” (Molecules : A Journal of Synthetic Chemistry and Natural …, 2017).
Like-named read-outs stand apart in the source and are kept apart here.

Key:
[1] = test system: L. infantum promastigotes; experiment: Leishmanicidal activity on promastigotes, resazurin; format: cell-based, Leishmania infantum; conditions: for IC50: 48 h, read-out: IC50 ± SD Promastigotes L. infantum; for SI NCTC/ L. infantum: ratio IC50 mammalian cell / IC50 parasite (promastigotes)
Excerpt: (§1) We initially selected compounds previously reported to have anti-T. cruzi activity from our chemical library to evaluate their leishmanicidal activity. […]. To evaluate their activity in Leishmania spp., we performed a phenotypic screening using the promastigote form of L. infantum (MHOM/FR/91/LEM-2259) and L. braziliensis ([…]) (Table 1A for the thiazolidenehydrazine derivate and Table 1B for the arylideneketones family).
(§2) A culture of L. braziliensis (MHOM/BR/75/M2904) and L. infantum (MHOM/FR/91/LEM2259V) was obtained from the Facultad de Farmacia (Universidad Complutense, Madrid, Spain). The maintenance of the strains, the form of cultivation and the isolation of the shape of the promastigote were performed following the procedures described by Roldos et al.. The promastigotes were grown at 22 °C in Schneider’s Drosophila medium supplemented with 20% FBS. The assay was performed using a modification of a previous method. Promastigotes (2 × 10^6 parasites/well) were cultivated in 96-well plastic plates. Compounds were dissolved in dimethylsulfoxide (DMSO). Different dilutions of the compounds with a final volume up to 200 µL were added. After 48 h at 26 °C, 20 µL of a 2 mM resazurin solution were added, and the oxidation-reduction was quantified at 570 and 600 nm. The solution of resazurin was prepared at 2.5 mM in phosphate buffered solution (PBS), pH 7.4, and filtered through 0.22-µm membranes prior to use. All tests were carried out in triplicate. Resazurin sodium salt was obtained from Sigma-Aldrich (St. Louis, MO, USA) and stored at 4 °C protected from light. The efficacy of each compound was estimated by calculating the IC50 values. Each antiproliferative experiment was done in duplicate, and each concentration was tested in triplicate.

[2] = test system: J774.1 murine macrophages; experiment: Nonspecific cytotoxicity on macrophages, MTT; format: cell-based; conditions: J774.1, 48 h, read-out: IC50 ± SD Murine Macrophages
Method: (§3) To establish the selectivity of the compounds against the parasites, nonspecific cytotoxicity against mammalian cells, using J774.1 murine macrophages and fibroblast NCTC929, was studied for the most relevant derivatives. The selectivity indexes were calculated as the ratio between cytotoxicity for mammalian cells and the anti-parasitic activity (Table 2).
J774.1 murine macrophage cells (ATCC, USA) were grown in DMEM culture milieu containing 4 mM L-glutamine and supplemented with 10% FCS. The cells were seeded in a 96-well plate (5.00 × 10^4 cells in 200 µL culture medium) and incubated at 37 °C in a 5% CO2 atmosphere for 48 h, to allow cell adhesion prior to drug testing. Afterwards, cells were exposed for 48 h to the compounds (25–400 μM) or the vehicle for control (0.4% DMSO), and additional controls (cells in medium) were used in each test. Cell viability was then assessed by measuring the mitochondria-dependent reduction of MTT (3-(4,5-dimethylthiazol-2-yl)-2,5-diphenyltetrazolium bromide) to formazan. For this purpose, MTT in sterile PBS (0.2% glucose), pH 7.4, was added to the macrophages to achieve a final concentration of 0.1 mg/mL, and the cells were incubated at 37 °C for 3 h. After removing the medium, formazan crystals were dissolved in 180 μL of DMSO and 20 μL of MTT buffer (0.1 M glycine, 0.1 M NaCl, 0.5 mM EDTA, pH 10.5), and the absorbance at 560 nm was measured. The IC50 was defined as the drug concentration at which 50% of the cells were viable, relative to the control (no drug added), and was determined by analysis using OriginLab8.5® sigmoidal regression (% of viable cells vs. the logarithm of the compound concentration). Tests were performed in triplicate.

[3] = test system: L. braziliensis promastigotes; experiment: Leishmanicidal activity on promastigotes, resazurin; format: cell-based, Leishmania braziliensis; conditions: for IC50: 48 h, read-out: IC50 ± SD Promastigotes L. braziliensis; for SI NCTC/ L. braziliensis: ratio IC50 mammalian cell / IC50 parasite (promastigotes)
Excerpt: as §1, §2

[4] = test system: T. cruzi epimastigotes, Tulahuen 2 strain (genotype TcVI); experiment: In vitro anti-T. cruzi activity, growth inhibition of epimastigotes; format: cell-based, Trypanosoma cruzi; conditions: for IC50: Trypanosoma cruzi, TULAHUEN; for SI J774.1/ T. cruzi: ratio IC50 mammalian cell / IC50 parasite (epimastigotes)
Method: For the in vitro anti-T. cruzi activity, we used epimastigotes of the Tulahuen 2 strain (genotype TcVI) grown in an axenic milieu (BHI-Tryptose). Cells from a 5–7-day-old culture were inoculated in fresh culture milieu to give an initial concentration of 1.00 × 10^6 cells/mL. The absorbance at 600 nm of the cells in culture was measured every day. At Day 5, the milieu was inoculated with different quantities of the compounds from a stock solution in DMSO (DMSO concentration in the culture milieu never exceeded 0.4%). The control was made in the presence of 0.4% DMSO and in the absence of compounds. Each concentration of compound was evaluated in duplicate. At Day 5, the absorbance of the culture was measured and related to the control. […] Each antiproliferative experiment was done in duplicate, and each concentration was tested in triplicate.

[5] = test system: NCTC929 fibroblasts; experiment: Nonspecific cytotoxicity on fibroblasts, resazurin; format: cell-based; conditions: NCTC-929, 24 h; read-out: IC50 ± SD Fibroblast NCTC929
Method: as §3
NCTC-Clone 929 were grown in minimal essential medium (Sigma) supplemented with 10% heat-inactivated FBS, penicillin G (100 U/mL) and streptomycin (100 µg/mL). Cell cultures were maintained at 37 °C in a humidified 5% CO2 atmosphere. The procedure for cell viability measurement was evaluated with resazurin by a colorimetric method. The cells were plated in 96 microtiter plates at 3.00 × 10^4 cells/well in 100 µL growth medium. The cells were grown overnight at 37 °C, 5% CO2. Thereafter, the medium was removed, and the compounds were added to 200 µL of medium for 24 h. After incubation, 20 µL of a 2 mM resazurin solution were added to each well. The plates were incubated for 3 h to allow optimal oxidation-reduction. The reduction of resazurin was determined by dual wavelength absorbance measurement at 490 and 595 nm. The background was subtracted. Each concentration was assayed three times. Medium and drug controls were used in each test as blanks.

[6] = Figure 4, molecular stripping of HIT1, read-out: Effect of structural change on trypanocidal activity (emoticon code)
[7] = Tulahuen 2 strain, read-out: IC50 ± SD Epimastigotes T. cruzi

IC50 [4, 7] [µM] | melting point | Molecule | IC50 ([1]; Leishmania infantum) [µM] | SI NCTC/ L. infantum [1] | IC50 ([2]; Mus musculus) [µM] | IC50 ([3]; Leishmania braziliensis) [µM] | SI NCTC/ L. braziliensis [3] | IC50 [4, 6] [µM] | Trypanocidal activity on T. cruzi in words ([4]; molecular stripping, epimastigotes) | SI J774.1/ T. cruzi [4] | IC50 [5] [µM] | IC50 [1] [µM] | IC50 [2] [µM] | IC50 [3] [µM]
> 25 |  | C(=Cc1ccccc1)CN1CCN(/N=C/C=C/c2ccco2)CC1 [GAT0913b, (E)-4-cinnamyl-N-((E)-3-(furan-2-yl)allylidene)piperazin-1-amine] | 21 ± 2 | 8 | 25 ± 3 | 18 ± 5 | 9 | > 25 | the activity was lost | 1 | 160 ± 7 |  |  | 
1.6 ± 0.3 | 148 to 150 °C | Cc1ccc(/C=C/C=C/C(/C=C/C=C/c2ccc(C)o2)=NN2CCN(CC=Cc3ccccc3)CC2)o1 [GAT1113, N-((1E,3E,6E,8E)-1,9-bis(5-methylfuran-2-yl)nona-1,3,6,8-tetraen-5-ylidene)-4-cinnamylpiperazin-1-amine] | 14 ± 2 | 12 | 45 ± 5 | 16 ± 4 | 10 | < 5 |  | 28 | 165 ± 5 |  |  | 
1.2 ± 0.3 | 212 °C (dec.) | Clc1ccc(-c2csc(N/N=C/C=C/c3ccco3)n2)cc1 [GAT2212B] | 25 |  |  | > 25 |  |  |  |  |  |  |  | 

Further lines, the molecule ahead of its results:

Molecule | IC50 [4, 7] [µM] | melting point | IC50 ([1]; Leishmania infantum) [µM] | SI NCTC/ L. infantum [1] | IC50 ([2]; Mus musculus) [µM] | IC50 ([3]; Leishmania braziliensis) [µM] | SI NCTC/ L. braziliensis [3] | IC50 [4, 6] [µM] | Trypanocidal activity on T. cruzi in words ([4]; molecular stripping, epimastigotes) | SI J774.1/ T. cruzi [4] | IC50 [5] [µM] | IC50 [1] [µM] | IC50 [2] [µM] | IC50 [3] [µM]
C=CCn1c(C(=O)CN2CCN(CC=Cc3ccccc3)CC2)cs/c1=N/N=C\C=C\c1ccco1 [GATk6, 1-((Z)-3-allyl-2-((E)-((E)-3-(furan-2-yl)allylidene)hydrazono)-2,3-dihydrothiazol-4-yl)-2-(4-cinnamylpiperazin-1-yl)ethanone] | 1.2 ± 0.3 | 140 to 142 °C | > 25 |  |  | > 25 |  | < 5 |  |  |  |  |  | 
CCCCCCCCCCCCCCCCOP(=O)([O-])OCC[N+](C)(C)C [Miltefosine, reference compound] | 8 ± 1 |  | 0.9 ± 0.2 | 56 | 50 ± 7 | 0.9 ± 0.2 |  |  |  | 6 |  |  |  | 
Glucantime [reference compound] |  |  |  | 0.5 |  |  | 1 |  |  |  |  | 26 ± 9 | 15 ± 1 | 18 ± 2
